Data: patent US10597367B2, “Metabotropic glutamate receptor negative allosteric modulators (NAMs) and uses thereof” (Sanford Burnham Prebys Medical Discovery Institute, priority 2014, dated 2020)
Read-outs that look alike come from different tables or passages of the source.

How the values were obtained:
[1] = biological target: mGlu2 receptor (Rattus norvegicus (Rat), UniProt P31421); test: mGlu2 in vitro GIRK thallium flux assay; assay type: cell-based; details: NAM, HEK-293 GIRK cells
Procedure: All cell culture reagents were purchased from Invitrogen Corp. (Carlsbad, Calif.) unless otherwise noted. Compound activity at the group II (mGlu2 and mGlu3) mGlus was assessed using thallium flux through GIRK channels. Briefly, cells were plated into 384-well, black-walled, clear-bottomed poly-D-lysine-coated plates at a density of 15,000 cells/20 μL/well in DMEM containing 10% dialyzed FBS, 20 mM HEPES, and 100 units/mL penicillin/streptomycin (assay media). Plated cells were incubated overnight at 37° C. in the presence of 5% CO2. […] Cells were incubated for 1 h at room temperature, and the dye exchanged to assay buffer using an ELX405, leaving 20 μL/well. Test compounds were diluted to 2 times their final desired concentration in assay buffer (0.3% DMSO final concentration). […] Cell plates and compound plates were loaded onto a kinetic imaging plate reader (FDSS 6000 or 7000; Hamamatsu Corporation, Bridgewater, N.J.). Appropriate baseline readings were taken (10 images at 1 Hz; excitation, 470±20 nm; emission, 540±30 nm) and test compounds were added in a 20 μL volume and incubated for either 2.5 min or 60 min as indicated before the addition of 10 μL of thallium buffer with or without agonist. After the addition of agonist, data were collected for approximately an additional 2.5 min. Data were analyzed using Excel (Microsoft Corp, Redmond, Wash.). The slope of the fluorescence increase beginning 5 s after thallium/agonist addition and ending 15 s after thallium/agonist addition was calculated, corrected to vehicle and maximal agonist control slope values, and plotted in using either XLfit (ID Business Solutions Ltd) or Prism software (GraphPad Software, San Diego, Calif.) to generate concentration-response curves. Potencies were calculated from fits using a four-point parameter logistic equation. For concentration-response curve experiments, compounds were serially diluted 1:3 into 10 point concentration response curves and were transferred to daughter plates using an Echo acoustic plate reformatter (Labcyte, Sunnyvale, Calif.). Test compounds were applied and followed by EC80 concentrations of glutamate.

[2] = biological target: mGlu3 receptor (Rattus norvegicus (Rat), UniProt P31422); test: mGlu3 in vitro GIRK thallium flux assay; assay type: cell-based; details: NAM; test compound incubated 2.5 min before EC80 glutamate; HEK-293 GIRK cells
Procedure: All cell culture reagents were purchased from Invitrogen Corp. (Carlsbad, Calif.) unless otherwise noted. Compound activity at the group II (mGlu2 and mGlu3) mGlus was assessed using thallium flux through GIRK channels. Briefly, cells were plated into 384-well, black-walled, clear-bottomed poly-D-lysine-coated plates at a density of 15,000 cells/20 μL/well in DMEM containing 10% dialyzed FBS, 20 mM HEPES, and 100 units/mL penicillin/streptomycin (assay media). Plated cells were incubated overnight at 37° C. in the presence of 5% CO2. […] Cells were incubated for 1 h at room temperature, and the dye exchanged to assay buffer using an ELX405, leaving 20 μL/well. Test compounds were diluted to 2 times their final desired concentration in assay buffer (0.3% DMSO final concentration). […] Cell plates and compound plates were loaded onto a kinetic imaging plate reader (FDSS 6000 or 7000; Hamamatsu Corporation, Bridgewater, N.J.). Appropriate baseline readings were taken (10 images at 1 Hz; excitation, 470±20 nm; emission, 540±30 nm) and test compounds were added in a 20 μL volume and incubated for either 2.5 min or 60 min as indicated before the addition of 10 μL of thallium buffer with or without agonist. […] Data were analyzed using Excel (Microsoft Corp, Redmond, Wash.). […] Potencies were calculated from fits using a four-point parameter logistic equation. […]

[3] = tested on: Male Wistar rats; test: Forced Swim Test (FST); assay type: in vivo; details: rat, FIG. 1
Procedure: Male Wistar rats (Charles River, Hollister, Calif.), weighing 175-225 g (Charles River, Portage, Ind.) used for the forced swim test study were housed in pairs with food and water available ad libitum, except during testing, in a temperature and humidity controlled vivarium (21° C.). Rats were maintained on a 12-hour reverse light-dark cycle with lights on at 6 pm. All experimental procedures occurred during the dark cycle, were approved by the Institutional Animal Care and Use Committee of the Scripps Research Institute, and were in accordance with the Association for the Assessment and Accreditation of Laboratory Animal Care (AAALAC) guidelines. […]
After the habituation swim and 24 hours prior to the test swim, rats were administered one of three doses of a mGlu2/3 NAM, with doses and pretreatment time based on maximal brain penetration as determined by PK studies for each compound. Blood and brain tissue were collected immediately after the FST and the PK properties of each compound were analyzed together with FST behavior. […] Twenty-four hours after their first exposure, the animals were again placed in the swim apparatus for 5 min, and behaviors were monitored from above by video camera for subsequent analysis. The rater of the behavioral patterns was blind with respect to the experimental conditions being scored. […]

[4] = tested on: reserpine-treated rat; details: cited from earlier work
[5] = tested on: R6/2 mice; details: daily subcutaneous 20 mg/kg (MTD) beginning at 4 weeks; cited from earlier work
[6] = tested on: wild-type and mGlu2 knockout mice; details: acute 0.5, 1 or 5 mg/kg, i.p.; not in mGlu3 knockout mice; cited from earlier work
[7] = tested on: cultured spinal cord astrocytes; details: astrocytes from wild-type and mGlu2 knockout mice, not mGlu3 knockout; cited from earlier work
[8] = tested on: SOD1G93A mice; details: continuous treatment 1 or 5 mg/kg/day; cited from earlier work

Chain of mGlu2 receptor (P31421 19-872): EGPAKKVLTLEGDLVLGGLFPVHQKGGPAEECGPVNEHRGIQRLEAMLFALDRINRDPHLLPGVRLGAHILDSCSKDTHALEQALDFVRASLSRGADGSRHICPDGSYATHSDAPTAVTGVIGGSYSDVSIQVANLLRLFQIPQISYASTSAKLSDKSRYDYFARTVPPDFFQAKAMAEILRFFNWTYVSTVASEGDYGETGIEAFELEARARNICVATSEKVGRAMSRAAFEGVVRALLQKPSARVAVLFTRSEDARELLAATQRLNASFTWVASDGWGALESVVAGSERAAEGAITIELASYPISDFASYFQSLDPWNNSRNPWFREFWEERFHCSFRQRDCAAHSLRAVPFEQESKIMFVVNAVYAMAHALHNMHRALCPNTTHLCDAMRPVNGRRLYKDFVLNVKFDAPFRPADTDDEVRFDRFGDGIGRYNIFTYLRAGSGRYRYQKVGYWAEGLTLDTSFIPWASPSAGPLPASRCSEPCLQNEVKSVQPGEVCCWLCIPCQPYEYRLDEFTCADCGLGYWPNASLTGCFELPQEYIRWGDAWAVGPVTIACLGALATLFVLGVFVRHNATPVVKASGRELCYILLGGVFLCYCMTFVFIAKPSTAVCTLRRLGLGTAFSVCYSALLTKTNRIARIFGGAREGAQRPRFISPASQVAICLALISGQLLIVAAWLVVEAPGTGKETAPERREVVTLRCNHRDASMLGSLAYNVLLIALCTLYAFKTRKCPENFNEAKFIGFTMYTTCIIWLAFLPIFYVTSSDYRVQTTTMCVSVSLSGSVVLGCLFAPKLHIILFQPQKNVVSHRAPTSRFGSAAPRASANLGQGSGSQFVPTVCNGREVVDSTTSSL
Chain of mGlu3 receptor (P31422 23-879): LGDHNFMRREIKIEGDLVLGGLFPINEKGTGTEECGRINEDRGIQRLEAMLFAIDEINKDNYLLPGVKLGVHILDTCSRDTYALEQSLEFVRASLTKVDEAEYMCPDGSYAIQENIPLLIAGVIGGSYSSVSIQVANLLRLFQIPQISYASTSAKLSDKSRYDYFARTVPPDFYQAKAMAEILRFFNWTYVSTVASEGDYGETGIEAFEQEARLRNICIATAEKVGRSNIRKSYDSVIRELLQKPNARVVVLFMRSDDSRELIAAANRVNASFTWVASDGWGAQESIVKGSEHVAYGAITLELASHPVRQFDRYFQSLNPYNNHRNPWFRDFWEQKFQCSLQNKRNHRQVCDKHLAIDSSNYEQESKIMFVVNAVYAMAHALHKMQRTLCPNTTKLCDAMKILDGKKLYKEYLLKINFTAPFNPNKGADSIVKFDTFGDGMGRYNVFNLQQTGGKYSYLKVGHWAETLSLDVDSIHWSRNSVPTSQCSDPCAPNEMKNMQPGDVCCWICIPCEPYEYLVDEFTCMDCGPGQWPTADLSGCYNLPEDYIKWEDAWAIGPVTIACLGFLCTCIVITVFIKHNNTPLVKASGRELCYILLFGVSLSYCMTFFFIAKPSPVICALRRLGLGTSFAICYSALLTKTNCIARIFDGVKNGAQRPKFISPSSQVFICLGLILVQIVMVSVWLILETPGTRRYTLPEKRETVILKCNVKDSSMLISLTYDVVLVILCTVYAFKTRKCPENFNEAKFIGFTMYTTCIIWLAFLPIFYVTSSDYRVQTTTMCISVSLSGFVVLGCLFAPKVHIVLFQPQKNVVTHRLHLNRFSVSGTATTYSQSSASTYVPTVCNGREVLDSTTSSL

Cc1cc2c(cc1C(F)(F)F)NC(=O)CC(c1cccc(Oc3ccccc3)c1)N2 (stereo not shown) [Example 177, 7-Methyl-4-(3-phenoxyphenyl)-8-(trifluoromethyl)-4,5-dihydro-1H-benzo[b][1,4]diazepin-2(3H)-one]
EC50 ([1]; test compound incubated 2.5 min before EC80 glutamate, read-out: mGlu2 EC50 (μM) (2.5 min)): > 10 µM | EC50 ([1]; read-out: mGlu2 EC50 (μM) (60 min), test compound incubated 60 min before EC80 glutamate): > 10 µM | EC50 [2]: > 10 µM

O=C1CC(c2ccnc(Br)c2)=Nc2ccc(C(F)(F)F)cc2N1 [Example 191, 4-(2-Bromopyridin-4-yl)-8-(trifluoromethyl)-1,3-dihydro-2H-benzo[b][1,4]diazepin-2-one]
antidepressant activity in the Forced Swim Test (immobility, swimming) [3]: antidepressant activity by decreasing immobility and increasing swimming

N[C@@]1(C(=O)O)CO[C@H]2[C@H](C(=O)O)[C@H]21 [LY379268]
reserpine-induced akinesia after systemic administration ([4]; 0.1, 1, 10 mg/kg ip): did not reverse reserpine-induced akinesia | locomotor activity after intracerebroventricular administration ([4]; 1, 5, 10, 20 nmol/2 μl icv, reserpine (5 mg/kg ip)-treated rat): dose-dependent increase in locomotor activity | phenotype in R6/2 mice [5]: dramatically improves the phenotype | spinal cord GDNF levels [6]: enhanced spinal cord GDNF levels | GDNF levels in astrocytes [7]: enhanced GDNF levels | neurological disability in SOD1G93A mice [8]: beneficial effect on neurological disability
